Measurements: EPA's ToxRefDB 2

Key:
rat [1] = conditions: Subchronic oral toxicity in rodents, sprague dawley, Feed, dose end: 90 day, group: systemic, systemic / pathology gross / sperm measure / sperm count + systemic / pathology gross / sperm measure / sperm motility
dog [2] = conditions: Chronic toxicity; beagle; Oral; Feed; dose end: 1 year; group: systemic; systemic / pathology microscopic / skeletal muscle / degeneration + systemic / pathology microscopic / skeletal muscle / infiltration …
rabbit [3] = conditions: Prenatal developmental toxicity study, new zealand white, Oral, Gavage/Intubation, dose end: 19 GD
mouse [4] = conditions: Subchronic oral toxicity in rodents, b6c3f1, Gavage/Intubation, dose end: 94 day, group: systemic, systemic / pathology microscopic / liver / vacuolization cytoplasmic + systemic / clinical chemistry / alkaline phosphatase (alp/alk) / …
rat [5] = conditions: Fertility (Segment I), Oral, Gavage/Intubation, dose end: 6 GD
rat [6] = conditions: Fertility (Segment I); sprague dawley; Oral; Gavage/Intubation; dose end: 63 day; group: parental; systemic / in life observation / body weight / body weight + systemic / in life observation / body weight / body weight gain + systemic / in…
rat [7] = conditions: Sub-acute repeat dose toxicity, sprague dawley, Oral, Gavage/Intubation, dose end: 1 month, group: systemic
dog [8] = conditions: Chronic toxicity, beagle, Oral, Feed, dose end: 104 week, group: systemic
rat [9] = conditions: Prenatal developmental toxicity study, sprague dawley, Oral, Gavage/Intubation, dose end: 20 GD
rat [10] = conditions: Multigenerational reproductive toxicity study, sprague dawley, Oral, [Not Specified], dose end: 2 generation
rat [11] = conditions: Multigenerational reproductive toxicity study, other, Oral, Feed, dose end: 2 generation
dog [12] = conditions: Chronic toxicity; beagle; Oral; Feed; dose end: 52 week; group: systemic; systemic / hematology / anemia / anemia - hemolytic + systemic / hematology / platelet / platelet + systemic / in life observation / body …
mouse [13] = conditions: Carcinogenicity; cd1; Oral; Feed; dose end: 78 week; group: systemic; systemic / in life observation / body weight / body weight gain + systemic / organ weight / liver / relative to body weight + systemic / …
rat [14] = conditions: Prenatal developmental toxicity study, sprague dawley, Oral, Gavage/Intubation, dose end: 15 GD
rabbit [15] = conditions: Prenatal developmental toxicity study, new zealand white, Oral, Gavage/Intubation, dose end: 19 GD; remark: listed apart in the source
rat [16] = conditions: Combined chronic toxicity/carcinogenicity, sprague dawley, Oral, [Not Specified], dose end: 104 week, group: systemic
rat [17] = conditions: Developmental neurotoxicity study, sprague dawley, Oral, Gavage/Intubation, dose end: 105 PND, group: cannot be grouped
rat [18] = conditions: Combined chronic toxicity/carcinogenicity, sprague dawley, Oral, Feed, dose end: 104 week, group: systemic
rat [19] = conditions: Multigenerational reproductive toxicity study, sprague dawley, Oral, Feed, dose end: 2 generation, group: parental
[20] = group: developmental, developmental / developmental malformation / bone / short supernumerary
[21] = group: maternal, systemic / in life observation / body weight / body weight gain + systemic / in life observation / food consumption / food consumption
[22] = group: maternal, systemic / in life observation / body weight / body weight gain + systemic / in life observation / food consumption / food consumption + …
[23] = group: developmental, developmental / developmental malformation / bladder / [other]
[24] = group: parental, systemic / in life observation / body weight / body weight
[25] = systemic / hematology / hemoglobin distribution width (hdw) / hemoglobin distribution width (hdw) + systemic / hematology / platelet / …
[26] = systemic / clinical chemistry / alkaline phosphatase (alp/alk) / alkaline phosphatase (alp/alk) + systemic / organ weight / liver / absolute…
[27] = systemic / pathology microscopic / spleen / hemosiderosis
[28] = group: developmental, developmental / developmental malformation / bone / misaligned + developmental / developmental malformation / mouth / jaw / protruding …
[29] = group: offspring, systemic / in life observation / body weight / offspring (pup) weight
[30] = group: parental, systemic / in life observation / body weight / body weight + systemic / in life observation / clinical signs / [other] + systemic / in life …
[31] = group: reproductive, reproductive / reproductive performance / gestational length / gestational length
[32] = group: offspring, developmental / offspring survival late / viability index / viability index
[33] = group: offspring, developmental / offspring survival late / viability index / viability index + systemic / in life observation / body weight / offspring (pup…
[34] = group: parental, systemic / organ weight / liver / absolute + systemic / organ weight / liver / relative to body weight + systemic / pathology microscopic / …
[35] = group: developmental, developmental / developmental malformation / bone / delayed ossification + systemic / in life observation / body weight / fetal weight
[36] = group: developmental, developmental / developmental malformation / bone / delayed ossification + systemic / in life observation / body weight / fetal weight + …
[37] = group: maternal, systemic / in life observation / body weight / body weight + systemic / in life observation / body weight / body weight gain + systemic / in…
[38] = group: developmental, developmental / developmental malformation / bone / supernumerary
[39] = group: maternal, systemic / in life observation / body weight / body weight gain + systemic / in life observation / clinical signs / defecation + systemic / …
[40] = systemic / pathology gross / eye / discolored + systemic / pathology microscopic / eye / inflammation + systemic / pathology microscopic / …
[41] = developmental / developmental landmark / eye opening / eye opening + developmental / developmental landmark / incisor eruption / incisor …
[42] = developmental / developmental landmark / incisor eruption / incisor eruption + developmental / developmental landmark / eye opening / eye …
[43] = systemic / in life observation / body weight / body weight + systemic / in life observation / body weight / body weight gain
[44] = systemic / in life observation / body weight / body weight gain + systemic / in life observation / body weight / body weight

For `O=C(O)c1ccc(C(=O)O)cc1` [Terephthalic acid], the LEL (rat [1]) was 5820 mg/kg/day, the LOAEL (rat [1]) was > 5820 mg/kg/day and the NEL (rat [1]) was 1180 mg/kg/day. For the same compound, the NOAEL (rat [1]) was ≥ 5820 mg/kg/day.

For `Cc1cnc(C2=NC(C)(C(C)C)C(=O)N2)c(C(=O)O)c1` (stereo not drawn) [Imazapic], the LEL (dog [2]) was 137 mg/kg/day, the LOAEL (dog [2]) was 137 mg/kg/day and the NEL (dog [2]) was < 137 mg/kg/day. The NOAEL (dog [2]) was < 137 mg/kg/day, the LEL (rabbit [3]; [20]) was 350 mg/kg/day and the LOAEL (rabbit [3]; [20]) was > 700 mg/kg/day. The NEL (rabbit [3]; [20]) was 175 mg/kg/day, the NOAEL (rabbit [3]; [20]) was ≥ 700 mg/kg/day and the LEL (rabbit [3]; [21]) was 500 mg/kg/day. For the same compound, the LOAEL (rabbit [3]; [21]) was 500 mg/kg/day, the NEL (rabbit [3]; [22]) was 350 mg/kg/day and the NOAEL (rabbit [3]; [22]) was 350 mg/kg/day.

In the case of `CO[C@H]1/C=C/O[C@@]2(C)Oc3c(C)c(O)c4c(O)c(c(/C=N/N5CCN(C)CC5)c(O)c4c3C2=O)NC(=O)/C(C)=C\C=C\[C@H](C)[C@H](O)[C@@H](C)[C@@H](O)[C@@H](C)[C@H](OC(C)=O)[C@@H]1C` [Rifampicin], the LEL (mouse [4]) is reported as 100 mg/kg/day, the LOAEL (mouse [4]) is reported as 100 mg/kg/day and the NEL (mouse [4]) is reported as < 100 mg/kg/day. For the same compound, the NOAEL (mouse [4]) was < 100 mg/kg/day.

With `CCN1CCC2(CC1)COc1cc3c(cc12)N(C(=O)c1ccc(-c2ccc(-c4nnc(C)o4)cc2C)cc1)CC3.Cl` the LEL (rat [5]; [23]) was 30 mg/kg/day, the LOAEL (rat [5]; [23]) was > 30 mg/kg/day and the NEL (rat [5]; [23]) was 10 mg/kg/day. For the same compound, the NOAEL (rat [5]; [23]) was ≥ 30 mg/kg/day, the LEL (rat [5]; [24]) was 30 mg/kg/day and the LOAEL (rat [5]; [24]) was > 30 mg/kg/day. For the same compound, the NEL (rat [5]; [24]) was 10 mg/kg/day, the NOAEL (rat [5]; [24]) was ≥ 30 mg/kg/day and the LEL (rat [6]) was 30 mg/kg/day. The LOAEL (rat [6]) was > 30 mg/kg/day, the NEL (rat [6]) was 10 mg/kg/day and the NOAEL (rat [6]) was ≥ 30 mg/kg/day. For the same compound, the LOAEL (rat [7]; [25]) was > 30 mg/kg/day, the NEL (rat [7]; [25]) was 3 mg/kg/day and the NOAEL (rat [7]; [25]) was ≥ 30 mg/kg/day. The LEL (rat [7]; systemic / hematology / platelet / platelet + systemic / hematology / reticulocyte / reticulocyte) was 10 mg/kg/day.

`CC(C)N(C(=O)SCC(Cl)=C(Cl)Cl)C(C)C` [Tri-allate] gave an LOAEL (dog [8]; [26]) of 5 mg/kg/day, an NOAEL (dog [8]; [26]) of 1.5 mg/kg/day and an LEL (dog [8]; [27]) of 1.5 mg/kg/day. For the same compound, the NEL (dog [8]; [27]) was < 1.5 mg/kg/day, the LEL (rat [9]; [28]) was 90 mg/kg/day and the LOAEL (rat [9]; [28]) was 90 mg/kg/day. It also gave an NEL (rat [9]; [28]) of 30 mg/kg/day, an NOAEL (rat [9]; [28]) of 30 mg/kg/day and an LOAEL (rat [9]; [21]) of 30 mg/kg/day. It also gave an LEL (rat [9]; [22]) of 30 mg/kg/day, an NEL (rat [9]; [22]) of 10 mg/kg/day and an NOAEL (rat [9]; [22]) of 10 mg/kg/day. The LEL (rat [10]; [29]) was 2.5 mg/kg/day, the NEL (rat [10]; [29]) was < 2.5 mg/kg/day and the NOAEL (rat [10]; [29]) was 7.5 mg/kg/day. The LOAEL (rat [10]; group: offspring, systemic / in life observation / body weight / offspring (pup) weight + developmental / offspring survival late / [other] / [other]) was 30 mg/kg/day, the LOAEL (rat [10]; [30]) was 30 mg/kg/day and the NEL (rat [10]; [30]) was 2.5 mg/kg/day. For the same compound, the NOAEL (rat [10]; [30]) was 7.5 mg/kg/day, the LEL (rat [10]; group: parental, systemic / in life observation / body weight / body weight + systemic / organ weight / ovary / relative to body weight + systemic / organ …) was 7.5 mg/kg/day and the LEL (rat [10]; [31]) was 30 mg/kg/day. It also gave an LOAEL (rat [10]; [31]) of 30 mg/kg/day, an NEL (rat [10]; [31]) of 7.5 mg/kg/day and an NOAEL (rat [10]; [31]) of 7.5 mg/kg/day.

`CS(=O)(=O)c1cc(C(F)(F)F)ccc1C(=O)c1cnoc1C1CC1` [Isoxaflutole] gave an LEL (rat [11]; [32]) of 17.4 mg/kg/day, an LOAEL (rat [11]; [32]) of 17.4 mg/kg/day and an NEL (rat [11]; [33]) of 1.76 mg/kg/day. The NOAEL (rat [11]; [33]) was 1.76 mg/kg/day, the LEL (rat [11]; [34]) was 17.4 mg/kg/day and the LOAEL (rat [11]; [34]) was 17.4 mg/kg/day. It also gave an NEL (rat [11]; [34]) of 1.76 mg/kg/day, an NOAEL (rat [11]; [34]) of 1.76 mg/kg/day and an LEL (dog [12]) of 453 mg/kg/day. It also gave an LOAEL (dog [12]) of 453 mg/kg/day, an NEL (dog [12]) of 44.8 mg/kg/day and an NOAEL (dog [12]) of 44.8 mg/kg/day. It also gave an LEL (mouse [13]) of 64.4 mg/kg/day, an LOAEL (mouse [13]) of 64.4 mg/kg/day and an NEL (mouse [13]) of 3.2 mg/kg/day. The NOAEL (mouse [13]) was 3.2 mg/kg/day, the LEL (rat [14]; [35]) was 100 mg/kg/day and the LOAEL (rat [14]; [35]) was 100 mg/kg/day. The NEL (rat [14]; [36]) was 10 mg/kg/day, the NOAEL (rat [14]; [36]) was 10 mg/kg/day and the LEL (rat [14]; [37]) was 500 mg/kg/day. It also gave an LOAEL (rat [14]; [37]) of 500 mg/kg/day, an NEL (rat [14]; [37]) of 100 mg/kg/day and an NOAEL (rat [14]; [37]) of 100 mg/kg/day. For the same compound, the LEL (rabbit [15]; [38]) was 5 mg/kg/day, the LOAEL (rabbit [15]; [38]) was 5 mg/kg/day and the NEL (rabbit [15]; [38]) was < 5 mg/kg/day. The NOAEL (rabbit [15]; [38]) was < 5 mg/kg/day, the LEL (rabbit [15]; [39]) was 100 mg/kg/day and the LOAEL (rabbit [15]; [39]) was 100 mg/kg/day. For the same compound, the NEL (rabbit [15]; [39]) was 20 mg/kg/day, the NOAEL (rabbit [15]; [39]) was 20 mg/kg/day and the NEL (rat [16]; systemic / organ weight / liver / absolute + systemic / organ weight / liver / relative to body weight + systemic / pathology gross / liver…) was 2 mg/kg/day. It also gave an LEL (rat [16]; [40]) of 20 mg/kg/day, an LOAEL (rat [16]; [40]) of 20 mg/kg/day and an NOAEL (rat [16]; [40]) of 2 mg/kg/day.

With `CC(=O)OC/C=C(C)/C=C/C=C(C)/C=C/C1=C(C)CCCC1(C)C` [Retinol acetate] the LOAEL (rat [17]; [41]) was > 34.4 mg/kg/day, the NOAEL (rat [17]; [41]) was ≥ 34.4 mg/kg/day and the LEL (rat [17]; [42]) was 8.6 mg/kg/day. For the same compound, the NEL (rat [17]; [42]) was < 8.6 mg/kg/day.

Compound `COC(=O)c1ccccc1S(=O)(=O)NC(=O)Nc1nc(C)nc(OC)n1` [Metsulfuron-methyl] has an LOAEL (rat [18]; [43]) of 250 mg/kg/day, an NEL (rat [18]; [43]) of 1.25 mg/kg/day and an NOAEL (rat [18]; [43]) of 125 mg/kg/day. For the same compound, the LEL (rat [18]; systemic / in life observation / body weight / body weight gain + systemic / in life observation / body weight / body weight + systemic / …) was 25 mg/kg/day, the LOAEL (rat [19]; systemic / in life observation / body weight / body weight gain) was 250 mg/kg/day and the LEL (rat [19]; [44]) was 250 mg/kg/day. For the same compound, the NEL (rat [19]; [44]) was 25 mg/kg/day and the NOAEL (rat [19]; [44]) was 25 mg/kg/day.
